From patent US9409884B2 (Rigel Pharmaceuticals, Inc., priority 2012, dated 2016) come the findings set out here.

By EC50 is commonly meant the concentration giving half of the maximal effect.

SMILES strings stand for the structures. Counter-ions that a name gives are not always drawn. Where only a bound is given, the exact number is not on record here.

The target of one assay is AMPK. The experiment in a line: AMPK activation, enzyme-linked immunosorbent assay. The class given is biochemical. Particulars: Table 8, compounds of Table 1. In short, it runs like this: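 AMPK activation by test compounds was measured by enzyme-linked immunosorbent assay.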
Turning to `O=C(NC1CCN(Cc2ccncc2)CC1)c1cc2ccc(OC3CCN(c4ccc(C(F)(F)F)cc4)CC3)cc2o1` [Compound 1-87, N-(1-(pyridin-4-ylmethyl)piperidin-4-yl)-6-(1-(4-(trifluoromethyl)phenyl)piperidin-4-yloxy)benzofuran-2-carboxamide], the concentration giving a half-maximal response (EC50) was < 100 nM.

As to `O=C(NC1CCN(Cc2ccncc2)CC1)c1cc2ccc(OC3CCN(c4ccc(OC(F)(F)F)cc4)CC3)cc2o1` [Compound 1-88, N-(1-(pyridin-4-ylmethyl)piperidin-4-yl)-6-(1-(4-(trifluoromethoxy)phenyl)piperidin-4-yloxy)benzofuran-2-carboxamide], the concentration giving a half-maximal response (EC50) was < 100 nM.

For `N#Cc1ccc(CN2CCC(NC(=O)c3cc4ccc(OC5CCN(c6ccc(OC(F)(F)F)cc6)CC5)cc4o3)CC2)cc1` [Compound 1-89, N-(1-(4-cyanobenzyl)piperidin-4-yl)-6-(1-(4-(trifluoromethoxy)phenyl)piperidin-4-yloxy)benzofuran-2-carboxamide], the EC50 is < 100 nM.

In the case of `N#Cc1ccc(CN2CCC(NC(=O)c3cc4ccc(OC5CCN(c6ccc(C(F)(F)F)cc6)CC5)cc4o3)CC2)cc1` [Compound 1-90, N-(1-(4-cyanobenzyl)piperidin-4-yl)-6-(1-(4-(trifluoromethyl)phenyl)piperidin-4-yloxy)benzofuran-2-carboxamide], the EC50 is < 100 nM.

`O=C(NC1CCN(Cc2ccc(F)cc2)CC1)c1cc2ccc(OC3CCN(c4ccc(C(F)(F)F)cc4)CC3)cc2o1` [Compound 1-91, N-(1-(4-fluorobenzyl)piperidin-4-yl)-6-(1-(4-(trifluoromethyl)phenyl)piperidin-4-yloxy)benzofuran-2-carboxamide]: the EC50 is > 10000 nM.

As to `O=C(NC1CCN(Cc2ccccn2)CC1)c1cc2ccc(OC3CCN(c4ccc(OC(F)(F)F)cc4)CC3)cc2o1` [Compound 1-92, N-(1-(pyridin-2-ylmethyl)piperidin-4-yl)-6-(1-(4-(trifluoromethoxy)phenyl)piperidin-4-yloxy)benzofuran-2-carboxamide], the EC50 was in the range of 500 to 1000 nM.

For `O=C(NC1CCN(Cc2ccccn2)CC1)c1cc2ccc(OC3CCN(c4ccc(C(F)(F)F)cc4)CC3)cc2o1` [Compound 1-93, N-(1-(pyridin-2-ylmethyl)piperidin-4-yl)-6-(1-(4-(trifluoromethyl)phenyl)piperidin-4-yloxy)benzofuran-2-carboxamide], the concentration for a half-maximal effect (EC50) was 100 to 500 nM.

As for `O=C(NC1CCN(Cc2ccc(F)cc2)CC1)c1cc2ccc(OC3CCN(c4ccc(OC(F)(F)F)cc4)CC3)cc2o1` [Compound 1-94, N-(1-(4-fluorobenzyl)piperidin-4-yl)-6-(1-(4-(trifluoromethoxy)phenyl)piperidin-4-yloxy)benzofuran-2-carboxamide], the half-maximal effective concentration (EC50) was < 100 nM.

Turning to `O=C(NC1CCN(Cc2cccnc2)CC1)c1cc2ccc(OC3CCN(c4ccc(OC(F)(F)F)cc4)CC3)cc2o1` [Compound 1-95, N-(1-(pyridin-3-ylmethyl)piperidin-4-yl)-6-(1-(4-(trifluoromethoxy)phenyl)piperidin-4-yloxy)benzofuran-2-carboxamide], the half-maximal effective concentration (EC50) is < 100 nM.

As for `O=C(NC1CCN(Cc2cccnc2)CC1)c1cc2ccc(OC3CCN(c4ccc(C(F)(F)F)cc4)CC3)cc2o1` [Compound 1-96, N-(1-(pyridin-3-ylmethyl)piperidin-4-yl)-6-(1-(4-(trifluoromethyl)phenyl)piperidin-4-yloxy)benzofuran-2-carboxamide], the EC50 is < 100 nM.

On to `N#Cc1ccccc1CN1CCC(NC(=O)c2cc3ccc(OC4CCN(c5ccc(OC(F)(F)F)cc5)CC4)cc3o2)CC1` [Compound 1-97, N-(1-(2-cyanobenzyl)piperidin-4-yl)-6-(1-(4-(trifluoromethoxy)phenyl)piperidin-4-yloxy)benzofuran-2-carboxamide], for which the EC50 is < 100 nM.

Turning to `N#Cc1ccccc1CN1CCC(NC(=O)c2cc3ccc(OC4CCN(c5ccc(C(F)(F)F)cc5)CC4)cc3o2)CC1` [Compound 1-98, N-(1-(2-cyanobenzyl)piperidin-4-yl)-6-(1-(4-(trifluoromethyl)phenyl)piperidin-4-yloxy)benzofuran-2-carboxamide], the EC50 was < 100 nM.

As for `O=C(NC1CCN(Cc2ccc(C(F)(F)F)cc2)CC1)c1cc2ccc(OC3CCN(c4ccc(C(F)(F)F)cc4)CC3)cc2o1` [Compound 1-99, N-(1-(4-(trifluoromethyl)benzyl)piperidin-4-yl)-6-(1-(4-(trifluoromethyl)phenyl)piperidin-4-yloxy)benzofuran-2-carboxamide], the EC50 is < 100 nM.

Take `O=C(NC1CCN(Cc2ccc(C(F)(F)F)cc2)CC1)c1cc2cc(OC3CCN(c4ccc(C(F)(F)F)cc4)CC3)ccc2o1` [Compound 1-100, N-(1-(4-(trifluoromethyl)benzyl)piperidin-4-yl)-5-(1-(4-(trifluoromethyl)phenyl)piperidin-4-yloxy)benzofuran-2-carboxamide]: the EC50 is < 100 nM.

On to `O=C(NC1CCN(Cc2cccnc2)CC1)c1cc2cc(OC3CCN(c4ccc(C(F)(F)F)cc4)CC3)ccc2o1` [Compound 1-101, N-(1-(pyridin-3-ylmethyl)piperidin-4-yl)-5-(1-(4-(trifluoromethyl)phenyl)piperidin-4-yloxy)benzofuran-2-carboxamide], for which the EC50 is < 100 nM.

`CN(C(=O)c1cc2cc(OC3CCN(c4ccc(C(F)(F)F)cc4)CC3)ccc2o1)C1CCN(C(=O)OC(C)(C)C)CC1` [Compound 1-102, tert-butyl 4-(N-methyl-5-(1-(4-(trifluoromethyl)phenyl)piperidin-4-yloxy)benzofuran-2-carboxamido) piperidine-1-carboxylate] gave an EC50 of 1000 to 5000 nM.

In the case of `CN(C(=O)c1cc2cc(OC3CCN(c4ccc(C(F)(F)F)cc4)CC3)ccc2o1)C1CCNCC1` [Compound 1-103, N-methyl-N-(piperidin-4-yl)-5-(1-(4-(trifluoromethyl)phenyl)piperidin-4-yloxy)benzofuran-2-carboxamide], the EC50 was in the range of 1000 to 5000 nM.

Compound `CN(C(=O)c1cc2cc(OC3CCN(c4ccc(C(F)(F)F)cc4)CC3)ccc2o1)C1CCN(Cc2ccncc2)CC1` [Compound 1-104, N-methyl-N-(1-(pyridin-4-ylmethyl)piperidin-4-yl)-5-(1-(4-(trifluoromethyl)phenyl)piperidin-4-yloxy)benzofuran-2-carboxamide] had an EC50 of 100 to 500 nM.

`O=C(NC1CCN(S(=O)(=O)c2cccnc2)CC1)c1cc2ccc(OC3CCN(c4ccc(C(F)(F)F)cc4)CC3)cc2o1` [Compound 1-106, N-(1-(pyridin-3-ylsulfonyl)piperidin-4-yl)-6-(1-(4-(trifluoromethyl)phenyl)piperidin-4-yloxy)benzofuran-2-carboxamide]: the EC50 fell in the range of 100 to 500 nM.

Turning to `CN(C(=O)c1cc2cc(OC3CCN(c4ccc(C(F)(F)F)cc4)CC3)ccc2o1)C1CCN(Cc2ccc(C#N)cc2)CC1` [Compound 1-107, N-(1-(4-cyanobenzyl)piperidin-4-yl)-N-methyl-5-(1-(4-(trifluoromethyl)phenyl)piperidin-4-yloxy)benzofuran-2-carboxamide], the EC50 is < 100 nM.

Consider `O=C(NC1CCN(S(=O)(=O)c2cccnc2)CC1)c1cc2ccc(OC3CCN(c4ccc(OC(F)(F)F)cc4)CC3)cc2o1` [Compound 1-108, N-(1-(pyridin-3-ylsulfonyl)piperidin-4-yl)-6-(1-(4-(trifluoromethoxy)phenyl)piperidin-4-yloxy)benzofuran-2-carboxamide], for which the EC50 was in the range of 100 to 500 nM.

Turning to `CN(C(=O)c1cc2cc(OC3CCN(c4ccc(C(F)(F)F)cc4)CC3)ccc2o1)C1CCN(Cc2cccnc2)CC1` [Compound 1-109, N-methyl-N-(1-(pyridin-3-ylmethyl)piperidin-4-yl)-5-(1-(4-(trifluoromethyl)phenyl)piperidin-4-yloxy)benzofuran-2-carboxamide], the concentration for a half-maximal effect (EC50) is < 100 nM.

As to `CN(C(=O)c1cc2cc(OC3CCN(c4ccc(C(F)(F)F)cc4)CC3)ccc2o1)C1CCN(Cc2cccc(C#N)c2)CC1` [Compound 1-110, N-(1-(3-cyanobenzyl)piperidin-4-yl)-N-methyl-5-(1-(4-(trifluoromethyl)phenyl)piperidin-4-yloxy)benzofuran-2-carboxamide], the concentration giving a half-maximal response (EC50) is < 100 nM.

For `CN(C(=O)c1cc2cc(OC3CCN(c4ccc(C(F)(F)F)cc4)CC3)ccc2o1)C1CCN(Cc2ccccc2C#N)CC1` [Compound 1-111, N-(1-(2-cyanobenzyl)piperidin-4-yl)-N-methyl-5-(1-(4-(trifluoromethyl)phenyl)piperidin-4-yloxy)benzofuran-2-carboxamide], the EC50 lay within 100 to 500 nM.

On to `O=C(NC1CCN(C(=O)c2ccncc2)CC1)c1cc2ccc(OC3CCN(c4ccc(C(F)(F)F)cc4)CC3)cc2o1` [Compound 1-112, N-(1-isonicotinoylpiperidin-4-yl)-6-(1-(4-(trifluoromethyl)phenyl)piperidin-4-yloxy)benzofuran-2-carboxamide], for which the EC50 was < 100 nM.

As for `CC(C)(C)OC(=O)N1CCC(NC(=O)c2cc3cc(OC4CCN(Cc5ccc(C#N)cc5)CC4)ccc3o2)CC1` [Compound 1-113, tert-butyl 4-(5-(1-(4-cyanobenzyl)piperidin-4-yloxy)benzofuran-2-carboxamido) piperidine-1-carboxylate], the EC50 was in the range of 100 to 500 nM.

In turn, `N#Cc1ccc(CN2CCC(Oc3ccc4oc(C(=O)NC5CCN(Cc6ccccc6)CC5)cc4c3)CC2)cc1` [Compound 1-114, N-(1-benzylpiperidin-4-yl)-5-(1-(4-cyanobenzyl)piperidin-4-yloxy)benzofuran-2-carboxamide] registered an EC50 of 100 to 500 nM.

Turning to `O=C(NC1CCN(C(=O)c2ccncc2)CC1)c1cc2cc(OC3CCN(c4ccc(C(F)(F)F)cc4)CC3)ccc2o1` [Compound 1-115, N-(1-isonicotinoylpiperidin-4-yl)-5-(1-(4-(trifluoromethyl)phenyl)piperidin-4-yloxy)benzofuran-2-carboxamide], the half-maximal effective concentration (EC50) was < 100 nM.

The same assay, now with this note: Table 8, compounds of Table 1; formate salt.
`O=C(NC1CCN(Cc2ccncc2)CC1)c1cc2cc(OC3CCN(c4ccc(C(F)(F)F)cc4)CC3)ccc2o1` [Compound 1-105, N-(1-(pyridin-4-ylmethyl)piperidin-4-yl)-5-(1-(4-(trifluoromethyl)phenyl)piperidin-4-yloxy)benzofuran-2-carboxamide, formate salt]: the concentration giving a half-maximal response (EC50) was < 100 nM.
